Consider 3 compounds from patent US5124167A, “Anti-oxidant compositions containing fat” (Bar-Ilan University, priority 1990, dated 1992).

This assay concerns skin of adult mice (level of peroxides). The assay is described as follows: Peroxide level (TBA test) in skin of adult mice after cream application. In kind it is in vivo. Conditions: 0.1% dissolved in Oil of Olay, similar experiments. The method, then:
The plants that may be utilized as a source of the water soluble extract include the plant tissues of selected species such as the stems and green leaves selected from the group consisting of Spinacia, Trifolium, Medicago, Zea, Penicillaria, Algae, and Nicotiana. Other plants may be utilized if an aqueous extract of the green leaves provide an antioxidant effect when it is applied to skin. The antioxidant effect is determined by the thiobarbituric acid (TBA) test. This test is described in Food Res. V. 23, P 620 (1958). Generally the level of peroxide in the skin may be determined by assay of a sample of untreated skin which is peeled from a test animal. A preweighed sample of from 10 to 50 mg is homogenized in 0.2 M phosphate buffer pH 6.5 and centrifuged. The supernatant is collected and the peroxide level is determined using the TBA test. A sample of skin from the same animal which has been treated according to the invention is also peeled and the peroxide level is determined. A reduction in the peroxide level of about 35% when an antioxidant obtained from a plant is applied as 0.5% w/w dispersion in a petrolatum base is the criteria for determining if a given plant extract is useful according to the present invention.
Samples of creams and appropriate controls were applied to mice or rat skin for a fixed period. The application was done once a day. Experiments were terminated by killing the animals, peeling the skin and freezing it in liquid nitrogen. Samples of the frozen skin were homogenized in 0.2M phosphate buffer, pH 6.5. After centrifugation the supernatant was collected and analyzed for the peroxide value using the TBA (Thiobarbituric acid) test as described by Sinnhuber, et al. Food Res. V. 23, p 620 (1958).
In these experiments adult mice (2months old) were treated as described in Example 2. The grown mice were shaved before applying the creams to the skin.
In this experiment the antioxidant was dissolved in Oil of Olay. Mice were sacrificed after 21 days.

The structures appear in SMILES notation.

For the compound `COc1ccc(O)c(C(C)(C)C)c1` [BHA, butylated hydroxy anisole], the “effect on the level of peroxides in the skin” value (“effect on the level” below) is on record as “no reduction of the peroxides was observed”.

As for `Cc1cc(C(C)(C)C)c(O)c(C(C)(C)C)c1` [BHT, butylated hydroxy toluene], the “effect on the level” value is “no reduction of the peroxides was observed”.

With `Cc1c(C)c2c(c(C)c1O)CCC(C)(CCCC(C)CCCC(C)CCCC(C)C)O2` (stereo not drawn) [alpha tocopherol], the “effect on the level” value was “no reduction of the peroxides was observed”.
